Measurements reported in patent publication US20160303189A1, “Applications of Recombined Ganoderma Lucidum Immunoregulation Protein in Preparing Drugs for Treating Tissue Fibrosis” (priority 2014, published 2016).

Columns and labels:
Type in all cases: in vivo
[1] = system: Dox-induced myocardial damage; test: Treatment effect of rLZ-8 on Dox-induced myocardial damage in mice; conditions: Group H: 10 mg/kg fosinopril sodium tablets, intragastric, every two days
Description: Experiment grouping: there were 8 experimental groups, 10 mice/per group, saline group (Group A), model group (Group B), rLZ-8 3 μg/kg (Group C), rLZ-8 6 μg/kg(Group D), rLZ-8 12 μg/kg (Group E), rLZ-8 24 μg/kg (Group F), rLZ-8 48 μg/kg (Group G) and positive control group (Group H).
Treating process: The model making process was the same as embodiment 3. The models for groups B, C, D, E, F, G and H were made with 3 mg/kg Dox, and then as control groups, Groups A and B were given intraperitoneal injection of saline once every day, and Groups C, D, E, G and H were treated with rLZ-8, intravenous injection once every 2 days. The mice were weighed every 3 days and drugs were delivered in accordance with weights. The dose for Group C was 3 μg/kg, Group D was 6 μg/kg, Group E was 12 μg/kg, Group F was 24 μg/kg, Group G was 48 μg/kg, and as the positive control group, every two days the mice in Group H were given 10 mg/kg fosinopril sodium tablets by way of intragastric administration.
Experiment records: The deaths of the mice were recorded at 9:00 and 17:00 every day and activities of the mice were closely watched. […] The myocardial tissues were made into paraffin sections and were treated with HE staining and trichrome staining to do histological examinations.
Experimental results: In order to examine myocardial fibrosis grades of the mice and myocardial fibrosis status, in the seventh week, samples were taken according to the mortality rates. […] Sample taking: the mice were killed with the right amount of anesthetic injections and hearts of the mice were isolated under sterile conditions and rinsed with cold PBS, and then blood was blotted up filter paper. The ventricles were selected and crosscut at a 1/2 section. The myocardial tissue was put into 4% paraformaldehyde solution to be fixed, then it was paraffin sectioned and HE stained. Three slices were cut from each tissue and stained under the same conditions. The myocardial tissue of the mice was Masson stained and was photographed under 20 times 40 times microscopes and statistics were recorded.

[2] = system: model rats with liver fibrosis; test: Effects of rLZ-8 on body mass, liver weight and liver indexes of CCl4 model rats with liver fibrosis; conditions: 4 weeks
Description: (§1) Experiment grouping: model group, positive drug group and the treatment group were given subcutaneous injection of 50% volume fraction carbon tetrachloride olive oil solution, twice a week, starting 8:00 in the morning on Mondays and Thursdays, lasting for 8 weeks to replicate the cirrhosis model. For the first time the dose was 0.5 ml/100 g in accordance with weights of the mice, then 0.3 ml/100 g every four days in accordance with weights of the mice. They ate and drank water freely. At the same time on Mondays changes in rats' weights were monitored and the possibility of liver failure was preliminary estimated in order to reduce the mortality rated caused by replicating the cirrhosis model.
(§2) Treating process: In the control group (group A), the model group (group B), the positive drug group (glycyrrhizin group C), the low-dose treatment group (group D), the medium-dose treatment group (group E) and the high-dose treatment group (group F), 8 weeks after the cirrhosis models were built, the rats were anesthetized with ether, blood was drawn from retinal venous plexus to test serum liver biochemical indicators; the positive drug group were given subcutaneous injection of Ganlixin solution, the injection volume was 12.5 mg/kg. The process was performed once a day, lasting for 4 weeks; for the low, medium and high rLZ-8 dose groups, the concentration of subcutaneous injections were 15 μg/kg, 30 μg/kg and […] respectively; the injections were given once a day for 4 weeks; till the end of the 12th week, the mice were denied food but not water for 18 hours and anesthetized with ether. The eyeball blood of the rats was drawn, about […] samples of blood were centrifuged to get serum and then were put into a −20° C. deep freezer to be tested for serum biochemical indexes.

[3] = system: model rats with liver fibrosis; test: Effects of rLZ-8 on serum ALT, AST and ALB of CCl4 model rats with liver fibrosis; conditions: Group C: glycyrrhizin (Ganlixin) 12.5 mg/kg s.c. once a day
Description: as §1, §2
In the present experiment, the rats' liver fibrosis models were replicated by CCl4: olive oil (1:1) for 8 weeks. […] Compared with the control group, the difference was obvious and was statistically significant. The effect of medium dose rLZ-8 was the best.

[4] = system: lung tissue of mice (pulmonary fibrosis model); test: Model building of pulmonary fibrosis by BLM atomization, Szapiel grading of lung sections; conditions: for number of mice with Szapiel grade 0 (no alveolitis or fibrosis) / number of mice with Szapiel grade I (mild alveolitis or fibrosis) / number of mice with Szapiel grade II (medium alveolitis or fibrosis) / number of mice with Szapiel grade III (severe alveolitis or fibrosis): n=12
Description: 1) Modeling experiment grouping: Three groups were classified, a saline group (group A), a low BLM dose group (group B 4 mg/mL), a high BLM dose group (group C 8 mg/Ml), there were 12 mice in each group. The 12 mice in each group were divided into two groups, with 6 mice in each group and the two groups of mice were respectively put into 20×20×20 cm transparent glass containers with corresponding marks, then saline and BLM was sprayed respectively into the containers with medical ultrasonic nebulizers.
2) Model administration process: Each time the spray volume was 1 ml, then a glass cover was closed for 15 minutes and the mice were put back into cages to rest for 5 minutes, and the procedure was repeated 6 times.
The mice were killed respectively after 3 days, 7 days, 14 days and 21 days of feeding, and the lungs of the mice were taken out to see changes in appearance, color and the lung surface; after the lungs were taken out, broncho-alveolar lavage was done first, and then parts of the lung tissue were sliced into paraffin sections and histological examination was done on HE stain; RT-PCR was done on another parts of lung tissue to examine RNA level. Judged from histological analysis, RNA level, protein level and changes in amounts of inflammatory cells, a decision was made to see whether the model of pulmonary fibrosis is usable. The table below is the grading standards made by method of Szapiel to evaluate grading standard of seriousness of the pathological changes in the lung tissue.
There are 4 grades in Szapiel's pathological changes in lung tissue: “0” is grade 1; “I” is grade 2; “II” is grade 3; and “III” is grade 4. The higher the grade, the severer the degree of fibrosis is.

[5] = Group C: glycyrrhizin (Ganlixin solution) 12.5 mg/kg subcutaneous once a day
[6] = High BLM group, 8 mg/mL atomization
[7] = Low BLM group, 4 mg/mL atomization

## CCC(=O)O[C@@H](O[P@](=O)(CCCCc1ccccc1)CC(=O)N1C[C@H](C2CCCCC2)C[C@H]1C(=O)O)C(C)C [fosinopril sodium]
[1]
  Deaths: 0
  Number of Mice (sampled in week 7 according to mortality, 10 mice per group at start): 7
[1]; week 7
  Interstitial Fibrosis grade 0, number of mice: 6
  Interstitial Fibrosis grade +++, number of mice: 0
  Interstitial Fibrosis grade ++, number of mice: 0
  Interstitial Fibrosis grade +, number of mice: 1
  Perivascular Fibrosis grade 0, number of mice: 5
  Perivascular Fibrosis grade +++, number of mice: 0
  Perivascular Fibrosis grade ++, number of mice: 1
  Perivascular Fibrosis grade +, number of mice: 1
  Vacuolization grade 0, number of mice: 6
  Vacuolization grade +++, number of mice: 0
  Vacuolization grade ++, number of mice: 1
  Vacuolization grade +, number of mice: 0

## CC1(C)[C@@H](O[C@H]2O[C@H](C(=O)O)[C@@H](O)[C@H](O)[C@H]2O[C@@H]2O[C@H](C(=O)O)[C@@H](O)[C@H](O)[C@H]2O)CC[C@]2(C)[C@H]3C(=O)C=C4[C@@H]5C[C@@](C)(C(=O)O)CC[C@]5(C)CC[C@@]4(C)[C@]3(C)CC[C@@H]12 [glycyrrhizin]
[2]; Group C: glycyrrhizin (Ganlixin solution) 12.5 mg/kg s.c. once a day, weight after modelling
  Model weight: 303.5 ± 39.2 g
[2]; [5]
  Final weights: 397.1 ± 46.4 g
  Liver indexes: 3.1 ± 0.4%
  Liver weights: 12.43 ± 2.25 g
[3]; Day 10
  serum ALB: 34.8 ± 0.2 g/L
  serum ALT: 143.3 ± 0.9 U/L
  serum AST: 176.2 ± 6.1 U/L
[3]; Day 20
  serum ALB: 30.0 ± 0.2 g/L
  serum ALT: 126.2 ± 1.3 U/L
  serum AST: 205.8 ± 4.2 U/L
[3]; Day 30
  serum ALB: 32.5 ± 0.1 g/L
  serum ALT: 49.5 ± 0.6 U/L
  serum AST: 59.0 ± 1.9 U/L

## bleomycin [BLM]
[4]; [6]
  number of mice with Szapiel grade 0 (no alveolitis or fibrosis): 0
  number of mice with Szapiel grade I (mild alveolitis or fibrosis): 1
  number of mice with Szapiel grade II (medium alveolitis or fibrosis): 2
  number of mice with Szapiel grade III (severe alveolitis or fibrosis): 9
[4]; [7]
  number of mice with Szapiel grade 0 (no alveolitis or fibrosis): 0
  number of mice with Szapiel grade I (mild alveolitis or fibrosis): 3
  number of mice with Szapiel grade II (medium alveolitis or fibrosis): 8
  number of mice with Szapiel grade III (severe alveolitis or fibrosis): 1
[4]; high BLM dose group, 8 mg/mL
  deaths of mice: most of them died of respiratory failures
  lung sections of the mice showing severe fibrosis: 75%
[4]; low BLM dose group, 4 mg/mL
  lung sections of the mice showing medium fibrosis: 66%
